Tested on: TFG-MET allograft tumors
Experiment: RNA-sequencing, differential expression and GSEA of TFG-MET allograft tumors
Type: in vivo, mouse
Details: RNA-sequencing of treated allograft tumors
Experimental: Error bars display standard error of mean, statistical significance was determined using t-test analysis. (****;p<0.0001, ***;p<0.001, **;p<0.01, *;p<0.05). […] Each dot represents an individual replicate. Error bars display standard error of the mean.
Each dot represents one gene.

C[C@@H](Oc1cc(-c2cnn(C3CCNCC3)c2)cnc1N)c1c(Cl)ccc(F)c1Cl [Crizotinib]
expression of Mapk signature genes in tumors: more heterogenous expression
